Source: patent publication US8258134B2, “Pyridazinone glucokinase activators” (Hoffmann-La Roche Inc., priority 2008, dated 2012)

Legend:
[1] = target: T1, Recombinant human liver GK1 (GST-GK) (Homo sapiens, UniProt P35557); test: Glucokinase in vitro assay (G6PDH-coupled NADH generation, OD340); assay type: biochemical; details: 5 mM D-glucose, 30° C., pH 7.1, 10% DMSO
T1 construct: made in house; host or cells: E. coli
T1 sequence (P35557 1-466 isoform P35557-2): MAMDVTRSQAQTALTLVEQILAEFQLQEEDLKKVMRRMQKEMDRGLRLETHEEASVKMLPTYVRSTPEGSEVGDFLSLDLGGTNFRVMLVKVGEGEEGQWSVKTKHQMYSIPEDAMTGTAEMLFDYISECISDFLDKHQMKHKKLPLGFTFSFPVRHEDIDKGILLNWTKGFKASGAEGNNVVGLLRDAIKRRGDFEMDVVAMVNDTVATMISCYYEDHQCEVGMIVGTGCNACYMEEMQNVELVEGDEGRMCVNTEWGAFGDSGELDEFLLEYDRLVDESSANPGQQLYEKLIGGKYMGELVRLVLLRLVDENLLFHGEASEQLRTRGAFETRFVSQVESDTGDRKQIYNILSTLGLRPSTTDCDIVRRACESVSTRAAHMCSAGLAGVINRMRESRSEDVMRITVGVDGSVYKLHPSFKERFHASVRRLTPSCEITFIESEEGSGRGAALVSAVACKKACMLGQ
In short: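 GST-tagged recombinant GK1 expressed in E. coli, run at 30° C, pH 7.1 Hepes with 5 mM D-glucose, 1 mM ATP and 1.8 mM NAD, G6PDH-coupled. Compounds were in 10% DMSO final, with a 10 min pre-incubation before enzyme addition. OD340/min rate measured; SC1.5 is the activator concentration giving a 50% increase in activity.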

[2] = system: Lean C57BL/6J mice; test: Glucokinase activator in vivo screen, blood glucose in lean mice; details: Mus musculus, vs control at 4 hours post 50 mg/kg oral dose, two hour fast, read-out: % glucose lowering @ 4 H
Experimental: Glucokinase Activator in vivo Screen Protocol in Lean and Diet Induced Obese Mice: Lean or Diet-induced Obese (DIO) C57BL/6J mice were orally dosed via gavage with Glucokinase (GK) activator following a two hour fasting period. Blood glucose determinations were made at various (e.g. 0, 1, 2, 4 and 8 hours post-oral gavage) times during the study.
C57Bl/6J mice were obtained from Jackson Laboratory (Bar Harbor, Me.) and were maintained in a light-dark cycle with lights on from 0600-1800 hr. For studies in lean mice, the mice were received at age ten weeks and given ad libitum access to control diet (LabDiet 5001 chow, PMI Nutrition, Brentwood, Mo.), and were at least age 11 weeks at the time of study. For studies in the DIO model, the mice were received at age five weeks and given ad libitum access to Bio-Serv F3282 High Fat Diet (Frenchtown, N.J.), and were at least age 16 weeks at the time of study. The experiments were conducted during the light phase of the light-dark cycle. Mice (n=6) are weighed and fasted for a two hour period prior to oral treatment. GK activators are formulated in Gelucire vehicle (Ethanol:Gelucire44/14:PEG400q.s. 4:66:30 v/w/v. For studies in lean mice, the mice were dosed orally with 5.0 μL per gram of body weight (i.e. 5 ml/kg×10.0 mg/ml formulation to equal a 50 mg/kg dose). For studies in DIO mice, the mice were dosed orally with 5.0 μL per gram of body weight (i.e. 5.0 ml/kg×5 mg/ml formulation to equal a 25 mg/kg dose). Immediately prior to dosing, a pre-dose (time zero) blood glucose reading was acquired by snipping off a small portion of the animal's tail and collecting 15 μL blood into a heparinized capillary tube for analysis. Following GK activator administration, additional blood glucose readings were taken at various time points post dose from the same tail wound. Results were interpreted by comparing the mean blood glucose values of vehicle treated mice with GK activator treated mice over the study period.
The Table below provides data for % glucose lowering of a representative number of compounds of the present invention vs control at 4 hours post 50 mg/kg dose in lean C57BL/6J mice: […]

SC1.5 average (concentration of activator that produced a 50% increase in the activity of GK) [1] | SMILES | change in vivo at 50 mg/kg [2]
0.206 µM | O=C(Nc1nccs1)C(CC1CCCC1)n1ncc(Oc2ccccc2)cc1=O (stereo not shown) [Example 2, 3-Cyclopentyl-2-(6-oxo-4-phenoxy-6H-pyridazin-1-yl)-N-thiazol-2-yl-propionamide] | -41.9%
1.323 µM | CC(C)(O)Cn1ccc(NC(=O)C(CC2CCCC2)n2ncc(OC3CCCC3)cc2=O)n1 (stereo not shown) [Example 8, 3-Cyclopentyl-2-(4-cyclopentyloxy-6-oxo-6H-pyridazin-1-yl)-N-[1-(2-hydroxy-2-methyl-propyl)-1H-pyrazol-3-yl]-propionamide] | -5.6%
0.206 µM | CC(C)(O)Cn1ccc(NC(=O)C(CC2CCCC2)n2ncc(Oc3ccccc3C(F)(F)F)cc2=O)n1 (stereo not shown) [Example 11, 3-Cyclopentyl-N-[1-(2-hydroxy-2-methyl-propyl)-1H-pyrazol-3-yl]-2-[6-oxo-4-(2-trifluoromethyl-phenoxy)-6H-pyridazin-1-yl]-propionamide] | -48.9%
0.117 µM | COc1ccccc1Oc1cnn(C(CC2CCCC2)C(=O)Nc2ccn(CC(C)(C)O)n2)c(=O)c1 (stereo not shown) [Example 12, 3-Cyclopentyl-N-[1-(2-hydroxy-2-methyl-propyl)-1H-pyrazol-3-yl]-2-[4-(2-methoxy-phenoxy)-6-oxo-6H-pyridazin-1-yl]-propionamide] | -49.3%
0.179 µM | Cn1nc(NC(=O)C(CC2CCCC2)n2ncc(Oc3ccccc3C(F)(F)F)cc2=O)cc1Cl (stereo not shown) [Example 13, N-(5-Chloro-1-methyl-1H-pyrazol-3-yl)-3-cyclopentyl-2-[6-oxo-4-(2-trifluoromethyl-phenoxy)-6H-pyridazin-1-yl]-propionamide] | -45.8%
0.256 µM | Cn1ccc(NC(=O)C(CC2CCCC2)n2ncc(Oc3ccccc3C(F)(F)F)cc2=O)n1 (stereo not shown) [Example 14, 3-Cyclopentyl-N-(1-methyl-1H-pyrazol-3-yl)-2-[6-oxo-4-(2-trifluoromethyl-phenoxy)-6H-pyridazin-1-yl]-propionamide] | -46.7%
0.113 µM | CC(C)(O)Cn1ccc(NC(=O)C(CC2CCCC2)n2ncc(Oc3cccc4c3CCCC4)cc2=O)n1 (stereo not shown) [Example 17, 3-Cyclopentyl-N-[1-(2-hydroxy-2-methyl-propyl)-1H-pyrazol-3-yl]-2-[6-oxo-4-(5,6,7,8-tetrahydro-naphthalen-1-yloxy)-6H-pyridazin-1-yl]-propionamide] | -35.2%
0.14 µM | CC(C)(O)Cn1ccc(NC(=O)C(CC2CCCC2)n2ncc(Oc3ccccc3F)cc2=O)n1 (stereo not shown) [Example 19, 3-Cyclopentyl-2-[4-(2-fluoro-phenoxy)-6-oxo-6H-pyridazin-1-yl]-N-[1-(2-hydroxy-2-methyl-propyl)-1H-pyrazol-3-yl]-propionamide] | -49.2%
0.347 µM | CC(C)(O)Cn1ccc(NC(=O)C(CC2CCCC2)n2ncc(Oc3ccccc3C3CCCC3)cc2=O)n1 (stereo not shown) [Example 22, 3-Cyclopentyl-2-[4-(2-cyclopentyl-phenoxy)-6-oxo-6H-pyridazin-1-yl]-N-[1-(2-hydroxy-2-methyl-propyl)-1H-pyrazol-3-yl]-propionamide] | -31.6%
0.174 µM | Cc1ccccc1Oc1cnn(C(CC2CCCC2)C(=O)Nc2ccn(CC(C)(C)O)n2)c(=O)c1 (stereo not shown) [Example 24, 3-Cyclopentyl-N-[1-(2-hydroxy-2-methyl-propyl)-1H-pyrazol-3-yl]-2-(6-oxo-4-o-tolyloxy-6H-pyridazin-1-yl)-propionamide] | -62.1%
0.227 µM | CC(C)(O)Cn1ccc(NC(=O)C(CC2CCCC2)n2ncc(Oc3ccccc3C#N)cc2=O)n1 (stereo not shown) [Example 29, 2-[4-(2-Cyano-phenoxy)-6-oxo-6H-pyridazin-1-yl]-3-cyclopentyl-N-[1-(2-hydroxy-2-methyl-propyl)-1H-pyrazol-3-yl]-propionamide] | -27.8%
0.356 µM | CC(C)(O)Cn1ccc(NC(=O)C(CC2CCCC2)n2ncc(Oc3cc(F)ccc3F)cc2=O)n1 (stereo not shown) [Example 33, 3-Cyclopentyl-2-[4-(2,5-difluoro-phenoxy)-6-oxo-6H-pyridazin-1-yl]-N-[1-(2-hydroxy-2-methyl-propyl)-1H-pyrazol-3-yl]-propionamide] | -30.2%
0.063 µM | CC(C)(O)Cn1ccc(NC(=O)C(CC2CCCC2)n2ncc(Oc3c(F)cccc3F)cc2=O)n1 (stereo not shown) [Example 36, 3-Cyclopentyl-2-[4-(2,6-difluoro-phenoxy)-6-oxo-6H-pyridazin-1-yl]-N-[1-(2-hydroxy-2-methyl-propyl)-1H-pyrazol-3-yl]-propionamide] | -60.9%
0.312 µM | O=C(O)c1ccc(NC(=O)C(CC2CCCC2)n2ncc(Oc3ccccc3C3CCCC3)cc2=O)nc1 (stereo not shown) [Example 71, 6-{3-Cyclopentyl-2-[4-(2-cyclopentyl-phenoxy)-6-oxo-6H-pyridazin-1-yl]-propionylamino}-nicotinic acid] | -61.7%
